According to publication PMC6934184, “Selective DNA-PKcs inhibition extends the therapeutic index of localized radiotherapy and chemotherapy” (The Journal of Clinical Investigation, 2019):

Target: T1, JAK2 (Homo sapiens, UniProt O60674)
T1 construct: purchased Thermo Fisher Scientific (Life Technologies) SelectScreen
Assay: SelectScreen Z'LYTE
Format: biochemical
Description: The in vitro kinase selectivity of NU5455 was determined using the SelectScreen Broad Assay Panel (Thermo Fisher Scientific) involving activity and binding assays (Supplemental Table 1). […] Class IA PI3Ks were measured using the p85α subunit.
Kinase [ATP] % Assay Kinase [ATP] % Assay Kinase [ATP] % Assay Kinase [ATP] % Assay
DNA-PK Km app 98.3 Z LATS2 n/a 4.7 L KIT D820E n/a 1.3 L GSK3B (GSK3 beta) Km app -2.5 Z
PIK3C3 (hVPS34) Km app 85.9 A PRKCZ (PKC zeta) Km app 4.7 Z GRK1 n/a 1.3 L BMPR2 n/a -2.5 L
PIK3C2B (PI3K-C2 beta) 10 28.9 A FGFR1 Km app 4.7 Z BRSK2 n/a 1.2 L CDC42 BPB (MRCKB) Km app -2.5 Z
SNF1LK2 Km app 26.6 Z MINK1 Km app 4.6 Z NUAK1 (ARK5) Km app 1.2 A AMPK (A2/B2/G2) n/a -2.6 L
HCK Km app 18.0 Z CSF1R (FMS) Km app 4.3 Z CDK9/cyclin K n/a 1.0 L PRKG1 Km app -2.7 Z
NEK2 Km app 17.8 Z CSNK1G3 (CK1 gamma 3) Km app 4.2 Z NUAK2 n/a 1.0 L KIT T670E n/a -2.8 L
ALK Km app 17.3 Z STK32C (YANK3) n/a 4.2 L CDK2/cyclin O n/a 0.9 L ERBB4 (HER4) Km app -2.8 Z
FGFR3 K650M n/a 16.5 L STK22D (TSSK1) Km app 4.2 Z CAMKK2 (CaMKK beta) n/a 0.9 L PLK4 n/a -2.8 L
SIK3 n/a 16.1 L TAOK3 (JIK) n/a 4.2 L FGFR3 Km app 0.9 Z GRK7 Km app -3.0 Z
LYN A Km app 15.2 Z RPS6KA4 (MSK2) Km app 4.2 Z ULK2 n/a 0.9 L MAPKAPK2 Km app -3.1 Z
BMPR1B (ALK6) n/a 14.5 L PTK2B (FAK2) Km app 4.2 Z KIT D816V n/a 0.9 L FGFR4 Km app -3.1 Z
INSRR (IRR) Km app 14.1 Z CLK2 Km app 4.1 Z CAMK1 (CaMK1) 10 0.8 A CASK n/a -3.1 L
PLK2 Km app 14.1 Z STK24 (MST3) Km app 4.1 Z PTK6 (Brk) Km app 0.7 Z GRK5 Km app -3.2 Z
PRKACA (PKA) Km app 14.0 Z CAMK1D (CaMKI delta) Km app 4.1 Z CAMK2B (CaMKII beta) Km app 0.7 Z EGFR (ErbB1) T790M Km app -3.3 Z
EIF2AK2 (PKR) n/a 13.3 L INSR Km app 4.1 Z ACVR1 (ALK2) n/a 0.7 L PAK4 Km app -3.3 Z
PRKX Km app 12.5 Z IRAK1 Km app 4.0 A ABL1 H396P n/a 0.6 L DAPK3 (ZIPK) Km app -3.4 Z
FGR Km app 12.1 Z SRC N1 Km app 3.9 Z MERTK (cMER) A708S n/a 0.6 L RET M918T n/a -3.5 L
CLK1 Km app 11.7 Z SRPK2 Km app 3.9 Z MAPKAPK5 (PRAK) Km app 0.6 Z PRKCQ (PKC theta) Km app -3.7 Z
MARK3 Km app 11.4 Z RPS6KA6 (RSK4) Km app 3.8 Z AKT1 (PKB alpha) Km app 0.5 Z CAMKK1 (CAMKKA) n/a -3.8 L
PDGFRB (PDGFR beta) Km app 11.0 Z GRK6 Km app 3.7 Z NTRK3 (TRKC) Km app 0.4 Z FLT3 D835Y Km app -3.9 Z
PRKCN (PKD3) Km app 10.7 Z PKN1 (PRK1) Km app 3.6 Z ZAP70 Km app 0.3 Z ROCK2 Km app -4.1 Z
STK16 (PKL12) n/a 10.5 L MAP3K8 (COT) 100 3.5 Z CSNK1A1 (CK1 alpha 1) Km app 0.3 Z CHUK (IKK alpha) Km app -4.2 A
FES (FPS) Km app 10.4 Z FLT4 (VEGFR3) Km app 3.5 Z MYLK (MLCK) n/a 0.2 L AXL Km app -4.2 Z
ABL1 Km app 10.4 Z GRK4 Km app 3.5 Z MKNK2 (MNK2) n/a 0.2 L PIM2 Km app -4.3 Z
MUSK Km app 10.3 Z FRK (PTK5) Km app 3.4 Z AMPK (A1/B1/G3) n/a 0.2 L PAK1 Km app -4.4 Z
MAPK1 (ERK2) Km app 10.1 Z FYN A n/a 3.3 L MAP3K2 (MEKK2) n/a 0.1 L BMPR1A (ALK3) n/a -4.4 L
BRAF 100 9.9 Z CDK1/cyclin A2 n/a 3.3 L CDK8/cyclin C n/a 0.1 L STK4 (MST1) Km app -4.4 Z
IGF1R Km app 9.7 Z KIT V559D T670I n/a 3.1 L MARK2 Km app 0.1 Z PRKCH (PKC eta) Km app -4.6 Z
MAPK14 (p38 alpha) Km app 9.7 Z SPHK2 10 3.1 A ICK n/a 0.0 L SGKL (SGK3) Km app -4.6 Z
LCK Km app 9.6 Z FGFR3 G697C n/a 3.1 L FGFR2 Km app 0.0 Z PI4KB (PI4K beta) Km app -4.7 A
MAPK11 (p38 beta) Km app 9.5 Z RIPK2 n/a 3.1 L AKT2 (PKB beta) Km app 0.0 Z PRKCE (PKC epsilon) Km app -4.9 Z
SRC Km app 9.5 Z PAK6 Km app 3.0 Z EPHB2 Km app -0.1 Z PHKG1 Km app -5.0 Z
CHEK1 (CHK1) Km app 9.3 Z LYN B Km app 3.0 Z TGFBR2 n/a -0.1 L PDGFRA D842V Km app -5.0 Z
CAMK2D (CaMKII delta) Km app 9.3 Z DAPK2 n/a 2.9 L TEK (Tie2) Km app -0.1 Z PRKG2 (PKG2) Km app -5.1 Z
PLK1 Km app 9.2 Z EPHA4 Km app 2.9 Z AURKA (Aurora A) Km app -0.1 Z TYRO3 (RSE) Km app -5.1 Z
RET Y791F Km app 9.2 Z PIK3CG (p110 gamma) Km app 2.9 A KIT D816H n/a -0.2 L TAOK2 (TAO1) Km app -5.1 Z
FLT3 Km app 9.1 Z HIPK1 (Myak) Km app 2.8 Z KIT N822K n/a -0.2 L EPHB4 Km app -5.3 Z
MAPK10 (JNK3) 100 9.0 Z ADRBK2 (GRK3) Km app 2.8 Z PRKACG (PRKAC gamma) n/a -0.2 L AURKC (Aurora C) Km app -5.4 Z
CSNK2A2 (CK2 alpha 2) Km app 8.7 Z STK17B (DRAK2) n/a 2.7 L TEK (TIE2) Y1108F n/a -0.3 L JAK1 Km app -5.7 Z […]

T1 sequence (O60674 whole entry): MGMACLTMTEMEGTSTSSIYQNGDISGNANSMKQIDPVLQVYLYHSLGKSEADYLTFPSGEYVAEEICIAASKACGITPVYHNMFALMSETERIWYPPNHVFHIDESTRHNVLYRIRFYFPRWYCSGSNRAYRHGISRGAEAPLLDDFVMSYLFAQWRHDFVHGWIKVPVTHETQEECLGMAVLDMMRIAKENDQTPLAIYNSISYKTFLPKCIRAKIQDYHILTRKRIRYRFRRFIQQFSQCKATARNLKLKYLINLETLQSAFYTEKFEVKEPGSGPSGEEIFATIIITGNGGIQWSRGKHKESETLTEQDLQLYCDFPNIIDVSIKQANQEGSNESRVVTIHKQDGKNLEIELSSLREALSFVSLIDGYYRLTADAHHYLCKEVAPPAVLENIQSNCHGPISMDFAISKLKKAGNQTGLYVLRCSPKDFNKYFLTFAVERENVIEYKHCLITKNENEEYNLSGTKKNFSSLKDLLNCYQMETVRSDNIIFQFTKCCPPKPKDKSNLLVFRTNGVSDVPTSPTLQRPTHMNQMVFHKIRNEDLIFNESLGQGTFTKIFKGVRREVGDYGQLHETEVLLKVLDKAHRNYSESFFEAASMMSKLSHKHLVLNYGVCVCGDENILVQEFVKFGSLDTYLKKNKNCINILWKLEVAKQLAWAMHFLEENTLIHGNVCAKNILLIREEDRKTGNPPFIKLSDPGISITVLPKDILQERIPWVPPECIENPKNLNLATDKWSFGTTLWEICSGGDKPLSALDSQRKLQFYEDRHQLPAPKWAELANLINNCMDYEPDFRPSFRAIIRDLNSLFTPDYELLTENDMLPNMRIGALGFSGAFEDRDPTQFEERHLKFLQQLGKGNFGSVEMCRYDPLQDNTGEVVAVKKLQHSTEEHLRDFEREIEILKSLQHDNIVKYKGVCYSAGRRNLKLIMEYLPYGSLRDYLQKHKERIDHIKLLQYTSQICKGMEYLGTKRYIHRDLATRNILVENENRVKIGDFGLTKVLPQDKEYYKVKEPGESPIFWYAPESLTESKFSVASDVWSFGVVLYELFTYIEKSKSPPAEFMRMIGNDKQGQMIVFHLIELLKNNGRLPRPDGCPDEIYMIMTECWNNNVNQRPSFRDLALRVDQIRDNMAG

## CN(C(=O)CN1CCOCC1)c1ccc2sc3c(-c4cccc5c(=O)cc(N6CC7CCC(C6)O7)oc45)cccc3c2c1 [NU5455]
  inhibition at 1 µM: 2.5%
